Results reported in patent US20190390161A1, “CULTURE MEDIUM COMPRISING OLIGOPEPTIDES” (Evonik Degussa GmbH, priority 2017, published 2019).
Marks after values point to notes of the source that are not given here. Bridge positions count the residues as written; N and C are the ends. Peptide text beside a SMILES is read from it. I, II: the chains in the order shown.

Assays:
plasmin = plasmin (Homo sapiens, UniProt P00747); conditions: Chemical & Pharmaceutical Bulletin 22, 2680 (1974); cited from earlier work
Chain of plasmin (P00747 581-810 limits assumed, species assumed): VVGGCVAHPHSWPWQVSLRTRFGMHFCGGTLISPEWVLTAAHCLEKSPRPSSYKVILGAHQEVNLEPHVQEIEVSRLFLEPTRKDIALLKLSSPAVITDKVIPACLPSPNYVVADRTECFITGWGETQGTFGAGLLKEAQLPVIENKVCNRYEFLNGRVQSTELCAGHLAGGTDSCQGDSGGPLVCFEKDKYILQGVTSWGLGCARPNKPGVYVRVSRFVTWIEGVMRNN
Chain of plasmin (P00747 97-580 partner limits assumed, species assumed): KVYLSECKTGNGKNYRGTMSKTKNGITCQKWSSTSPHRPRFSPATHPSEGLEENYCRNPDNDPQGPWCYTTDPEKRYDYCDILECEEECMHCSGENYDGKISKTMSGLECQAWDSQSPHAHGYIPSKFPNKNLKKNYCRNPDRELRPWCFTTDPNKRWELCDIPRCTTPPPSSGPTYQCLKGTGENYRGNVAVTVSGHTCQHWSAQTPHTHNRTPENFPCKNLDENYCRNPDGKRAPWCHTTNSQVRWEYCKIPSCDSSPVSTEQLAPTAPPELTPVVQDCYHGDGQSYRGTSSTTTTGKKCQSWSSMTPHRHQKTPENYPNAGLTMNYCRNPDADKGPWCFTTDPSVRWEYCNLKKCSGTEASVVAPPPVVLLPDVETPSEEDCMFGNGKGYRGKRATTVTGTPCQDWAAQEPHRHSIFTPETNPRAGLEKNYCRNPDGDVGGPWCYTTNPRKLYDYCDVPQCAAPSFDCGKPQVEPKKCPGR

[1] = test system: antibody producing Chinese Hamster Ovary (CHO) cells (Subclone DG44); assay: Experiment 1: cell growth (VCD) in TC-42 media, cysteine/cystine or leucine replaced by dipeptides; assay type: cell-based; design: Viable cell densities (VCD) / maximum cell densities (max. VCD): unit not given here; conditions: for maximum cell densities (max. VCD) / Viable cell densities (VCD): TC-42 media of table 2; for cell growth performance compared with reference medium (FIG. 1): same molar amount of cysteine and cystine in the form of dipeptides
From the text: The influence of the L-lysine dipeptides on the growth of antibody producing Chinese Hamster Ovary (CHO) cells (Subclone DG44; Life Technologies Cooperation, Carslbad, USA) in comparison to media containing either the corresponding free amino acids or the corresponding L-alanine dipeptides was investigated. For this purpose, the cells were cultivated in a TC-42 media produced by Xell AG, Bielefeld, Germany in which the amino acids provided within the experiments by dipeptides were lacking. The concentrations of these amino acids were adjusted in such a way that, taking into account a complete hydrolysis of the dipeptides into the amino acids, the concentration of all amino acids were the same in all media tested within this experiment. […] Experiment 1: Comparison of the Cell Growths Obtained with TC-42 media in which L-cysteine/L-cystine is replaced by bis-L-alanyl-L-cystine, bis-L-prolyl-L-cystine or bis-L-lysyl-L-cystine and L-leucine is replaced by […] For this experiment a TC-42 media produced by Xell AG, Bielefeld, Germany in which […]-cystine and L-leucine were deliberately left out of the initial formulation. […] [table]

[2] = Solubility found for Lys-Xxx dipeptides; conditions: for Solubility Lys-Xxx found: as hydrochloride or as acetate (footnotes 6, 7)
[3] = test system: antibody producing Chinese Hamster Ovary (CHO) cells (Subclone DG44); assay: Antibody production (final antibody titer) in TC-42 media; assay type: cell-based; conditions: compared with cells cultured in reference media; 24 days (FIG. 4)
From the text: FIG. 4 depicts the final antibody titer with TC-42 media obtained with oligopeptides according to the invention.
The influence of the L-lysine dipeptides on the growth of antibody producing Chinese Hamster Ovary (CHO) cells (Subclone DG44; Life Technologies Cooperation, Carslbad, USA) in comparison to media containing either the corresponding free amino acids or the corresponding L-alanine dipeptides was investigated. For this purpose, the cells were cultivated in a TC-42 media produced by Xell AG, Bielefeld, Germany in which the amino acids provided within the experiments by dipeptides were lacking. The concentrations of these amino acids were adjusted in such a way that, taking into account a complete hydrolysis of the dipeptides into the amino acids, the concentration of all amino acids were the same in all media tested within this experiment.
Additionally, the effect on antibody production was analysed comparing cells cultured in reference media and cells growing in a media containing the dipeptides bis-alanyl-L-cystine or […] for 24 days (FIG. 4).

[4] = cited from earlier work

Compound	maximum cell densities (max. VCD) [1]	Viable cell densities (VCD) ([1]; Time 0.0)	Viable cell densities (VCD) ([1]; Time 0.7)	Viable cell densities (VCD) ([1]; Time 2.0)	Viable cell densities (VCD) ([1]; Time 2.7)	Viable cell densities (VCD) ([1]; Time 3.6)	Viable cell densities (VCD) ([1]; Time 3.7)	Viable cell densities (VCD) ([1]; Time 4.7)	Viable cell densities (VCD) ([1]; Time 5.8)	Viable cell densities (VCD) ([1]; Time 6.7)	Viable cell densities (VCD) ([1]; Time 6.8)	Viable cell densities (VCD) ([1]; Time 7.8)	Viable cell densities (VCD) ([1]; Time 8.7)	Viable cell densities (VCD) ([1]; Time 9.7)	Viable cell densities (VCD) ([1]; Time 10.6)	Viable cell densities (VCD) ([1]; Time 11.6)	Viable cell densities (VCD) ([1]; Time 12.8)	Viable cell densities (VCD) ([1]; Time 13.6)	Viable cell densities (VCD) ([1]; Time 15.0)	Viable cell densities (VCD) ([1]; Time 15.9)	other results
Lys-Lys [reference compound]																					cleavage (hydrolysis) by plasmin (plasmin): none of these peptides were cleaved
CC(=O)O.CC(C)C[C@H](NC(=O)[C@@H](N)CCCCN)C(=O)O [Lys-Leu, L-Lysyl-L-leucine acetat] (H-Lys-Leu-OH)	12.43	0.33	0.39	0.59	0.81	0.92	0.34	0.56	0.94	1.40	0.30	0.45	0.79	1.24	1.81	2.38	3.12	3.66	4.52	5.47	Viable cell densities (VCD) ([1]; Time 16.7): 6.10; Viable cell densities (VCD) ([1]; Time 17.8): 6.03; Viable cell densities (VCD) ([1]; Time 18.7): 7.23; Viable cell densities (VCD) ([1]; Time 19.9): 10.51; Viable cell densities (VCD) ([1]; Time 20.7): 12.43; Viable cell densities (VCD) ([1]; Time 21.8): 12.15; Viable cell densities (VCD) ([1]; Time 22.8): 11.82; cleavage (hydrolysis) by plasmin (plasmin): none of these peptides were cleaved; Solubility Lys-Xxx found [2]: >330 ^7) g/1000 g solution
Bis-L-alanyl-L-cystine [Ala2-Cyss, reference compound]	15.06	0.26	0.42	0.47	0.67	0.84	0.36	0.71	1.52	2.34	0.32	0.48	1.06	1.79	3.19	4.89	7.65	10.01	11.62	15.06	Viable cell densities (VCD) ([1]; Time 16.7): 14.38; Viable cell densities (VCD) ([1]; Time 17.8): 14.05; Viable cell densities (VCD) ([1]; Time 18.7): 14.28; cell growth performance compared with reference medium (FIG. 1) [1]: the cells were able to utilize the peptides for growth; antibody production increased by [3]: at least 30%; Solubility Ala-Xxx ([4]; Degussa product brochure, cystine value WO 2011/133902): 8.7 ^2) g/1000 g solution; solubility ([4]; prior art values, background): 15.3 g/ltr
NCCCC[C@H](N)C(=O)N[C@@H](CSSC[C@H](NC(=O)[C@@H](N)CCCCN)C(=O)O)C(=O)O [Lys2-Cyss, Bis-L-lysyl-L-cystine × 4HCl] (I: H-Lys-Cys-OH / II: H-Lys-Cys-OH; disulfide I:2-II:2)	14.16	0.31	0.39	0.54	0.83	1.02	0.39	0.62	1.18	1.98	0.30	0.43	0.98	1.82	2.88	4.75	6.68	9.20	11.93	13.66	Viable cell densities (VCD) ([1]; Time 16.7): 13.41; Viable cell densities (VCD) ([1]; Time 17.8): 14.16; Viable cell densities (VCD) ([1]; Time 18.7): 14.15; cell growth performance compared with reference medium (FIG. 1) [1]: performance comparable to bis-alanyl-L-cystine; antibody production increased by [3]: ~50%; Solubility Lys-Xxx found [2]: >500 ^6) g/1000 g solution; solubility found ([2]; hydrochloride): > 50 % (w/w)
